These results are taken from ChEMBL document CHEMBL3745631, “Discovery of highly potent and selective Bruton's tyrosine kinase inhibitors: Pyridazinone analogs with improved metabolic stability” (Bioorg Med Chem Lett, 2016).

The target in data set [1] is Vascular endothelial growth factor receptor 2 (Homo sapiens) (UniProt P35968). Kind of data set: Inhibition of KDR (unknown origin) at 1 uM.
Data set [2] deals with Ribosomal protein S6 kinase alpha-1 (Homo sapiens) (UniProt Q15418). In words: Inhibition of Rsk1 (unknown origin) at 1 uM.
Ribosomal protein S6 kinase alpha-1 (Homo sapiens), sequence (Q15418 whole entry): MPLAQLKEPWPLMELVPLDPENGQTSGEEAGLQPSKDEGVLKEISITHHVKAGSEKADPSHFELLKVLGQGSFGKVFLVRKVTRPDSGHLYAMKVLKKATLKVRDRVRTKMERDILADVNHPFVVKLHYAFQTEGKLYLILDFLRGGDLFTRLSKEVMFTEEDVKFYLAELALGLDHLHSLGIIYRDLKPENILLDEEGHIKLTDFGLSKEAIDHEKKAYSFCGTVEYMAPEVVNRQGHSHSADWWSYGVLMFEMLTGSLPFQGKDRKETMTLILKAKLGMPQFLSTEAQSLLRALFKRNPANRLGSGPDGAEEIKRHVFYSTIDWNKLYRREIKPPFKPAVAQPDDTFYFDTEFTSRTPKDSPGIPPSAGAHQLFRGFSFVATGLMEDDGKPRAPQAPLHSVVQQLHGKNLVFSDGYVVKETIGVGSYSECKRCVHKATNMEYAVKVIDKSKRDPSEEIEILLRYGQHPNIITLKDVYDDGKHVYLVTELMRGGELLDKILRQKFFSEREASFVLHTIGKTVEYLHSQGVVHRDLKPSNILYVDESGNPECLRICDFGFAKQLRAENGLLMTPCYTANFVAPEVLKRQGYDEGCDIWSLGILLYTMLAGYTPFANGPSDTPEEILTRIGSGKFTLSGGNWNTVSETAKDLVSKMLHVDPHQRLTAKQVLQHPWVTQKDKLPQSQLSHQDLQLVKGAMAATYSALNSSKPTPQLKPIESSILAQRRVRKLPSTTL
Data set [3] deals with Dual specificity protein kinase CLK2 (Homo sapiens) (UniProt P49760). In words: Inhibition of CLK2 (unknown origin) at 1 uM.
Dual specificity protein kinase CLK2 (Homo sapiens), sequence (P49760 whole entry, looked up): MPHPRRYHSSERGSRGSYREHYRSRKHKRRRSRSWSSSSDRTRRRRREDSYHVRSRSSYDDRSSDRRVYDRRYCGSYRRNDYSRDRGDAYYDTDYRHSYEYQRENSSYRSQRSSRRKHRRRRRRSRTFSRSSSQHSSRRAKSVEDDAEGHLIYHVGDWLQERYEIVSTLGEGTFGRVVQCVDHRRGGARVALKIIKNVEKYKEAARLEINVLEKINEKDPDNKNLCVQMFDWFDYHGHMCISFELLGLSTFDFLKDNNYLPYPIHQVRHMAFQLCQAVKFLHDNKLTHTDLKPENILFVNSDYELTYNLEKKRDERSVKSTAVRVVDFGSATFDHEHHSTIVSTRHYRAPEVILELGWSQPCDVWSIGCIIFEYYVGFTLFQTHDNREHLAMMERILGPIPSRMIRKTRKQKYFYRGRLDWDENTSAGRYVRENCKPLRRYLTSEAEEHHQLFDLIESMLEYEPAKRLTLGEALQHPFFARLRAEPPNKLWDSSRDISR
Data set [4] addresses Calcium/calmodulin-dependent protein kinase kinase 2 (Homo sapiens) (UniProt Q96RR4). In words: Inhibition of CAMKK2 (unknown origin) at 1 uM.
Data set [5] deals with Ribosomal protein S6 kinase alpha-3 (Homo sapiens) (UniProt P51812). In words: Inhibition of Rsk2 (unknown origin) at 1 uM.
Ribosomal protein S6 kinase alpha-3 (Homo sapiens), sequence (P51812 whole entry): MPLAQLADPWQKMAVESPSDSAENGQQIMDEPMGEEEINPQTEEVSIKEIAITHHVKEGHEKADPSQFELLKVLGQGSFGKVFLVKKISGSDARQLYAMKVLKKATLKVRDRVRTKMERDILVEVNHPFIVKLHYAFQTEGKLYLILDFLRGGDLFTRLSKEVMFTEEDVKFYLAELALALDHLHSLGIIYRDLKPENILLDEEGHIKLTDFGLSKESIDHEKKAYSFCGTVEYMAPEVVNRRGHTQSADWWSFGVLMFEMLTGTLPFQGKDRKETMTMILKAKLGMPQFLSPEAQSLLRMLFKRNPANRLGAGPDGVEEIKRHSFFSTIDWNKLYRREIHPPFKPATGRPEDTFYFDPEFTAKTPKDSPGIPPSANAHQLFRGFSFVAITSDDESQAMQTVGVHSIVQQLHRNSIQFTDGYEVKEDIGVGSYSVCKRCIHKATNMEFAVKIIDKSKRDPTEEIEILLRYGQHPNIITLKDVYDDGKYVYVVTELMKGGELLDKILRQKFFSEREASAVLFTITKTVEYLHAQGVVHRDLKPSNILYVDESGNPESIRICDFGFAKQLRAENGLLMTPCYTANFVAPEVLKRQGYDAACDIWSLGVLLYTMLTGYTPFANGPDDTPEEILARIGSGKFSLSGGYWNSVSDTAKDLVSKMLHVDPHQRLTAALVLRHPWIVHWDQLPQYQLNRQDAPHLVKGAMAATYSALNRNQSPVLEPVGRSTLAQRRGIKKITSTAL
For data set [6], the target named is Activin receptor type-1B (Homo sapiens) (UniProt P36896). Kind of data set: Inhibition of ACVR1B (unknown origin) at 1 uM.
Activin receptor type-1B (Homo sapiens), sequence (P36896 whole entry): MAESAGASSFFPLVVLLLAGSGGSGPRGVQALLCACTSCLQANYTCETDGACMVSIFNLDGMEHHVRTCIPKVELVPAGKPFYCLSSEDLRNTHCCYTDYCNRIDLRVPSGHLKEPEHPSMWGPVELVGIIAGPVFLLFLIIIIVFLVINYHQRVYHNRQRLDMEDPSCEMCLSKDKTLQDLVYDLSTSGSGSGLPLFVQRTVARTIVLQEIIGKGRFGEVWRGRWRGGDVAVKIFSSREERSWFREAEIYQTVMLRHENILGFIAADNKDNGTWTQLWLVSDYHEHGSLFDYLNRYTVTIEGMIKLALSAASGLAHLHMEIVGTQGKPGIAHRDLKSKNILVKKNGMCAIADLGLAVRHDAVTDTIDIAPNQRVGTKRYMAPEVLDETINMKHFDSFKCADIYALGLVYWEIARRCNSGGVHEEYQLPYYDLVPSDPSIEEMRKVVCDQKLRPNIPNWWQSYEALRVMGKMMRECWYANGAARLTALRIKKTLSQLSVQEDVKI
Another data set has as its system Mus musculus. Kind of data set: Clearance in mouse at 1 mg/kg, iv by LC-MS/MS analysis. Particulars: in vivo. The format is ADME, organism-based.
Data set [7] has as its target Phosphorylase b kinase gamma catalytic chain, liver/testis isoform (Homo sapiens) (UniProt P15735). In words: Inhibition of PhK gamma2 (unknown origin) at 1 uM.
For data set [8], the target named is Inhibitor of nuclear factor kappa-B kinase subunit epsilon (Homo sapiens) (UniProt Q14164). In words: Inhibition of IKKepsilon (unknown origin) at 1 uM.
For data set [9], the target named is CDK8/Cyclin C (Homo sapiens) (UniProt P49336+P24863). In words: Inhibition of CDK8/cyclinC (unknown origin) at 1 uM. The format is protein-complex assay.
The target of data set [10] is Glycogen synthase kinase-3 alpha (Homo sapiens) (UniProt P49840). In words: Inhibition of GSK3 alpha (unknown origin) at 1 uM.
Glycogen synthase kinase-3 alpha (Homo sapiens), sequence (P49840 2-483 limits assumed): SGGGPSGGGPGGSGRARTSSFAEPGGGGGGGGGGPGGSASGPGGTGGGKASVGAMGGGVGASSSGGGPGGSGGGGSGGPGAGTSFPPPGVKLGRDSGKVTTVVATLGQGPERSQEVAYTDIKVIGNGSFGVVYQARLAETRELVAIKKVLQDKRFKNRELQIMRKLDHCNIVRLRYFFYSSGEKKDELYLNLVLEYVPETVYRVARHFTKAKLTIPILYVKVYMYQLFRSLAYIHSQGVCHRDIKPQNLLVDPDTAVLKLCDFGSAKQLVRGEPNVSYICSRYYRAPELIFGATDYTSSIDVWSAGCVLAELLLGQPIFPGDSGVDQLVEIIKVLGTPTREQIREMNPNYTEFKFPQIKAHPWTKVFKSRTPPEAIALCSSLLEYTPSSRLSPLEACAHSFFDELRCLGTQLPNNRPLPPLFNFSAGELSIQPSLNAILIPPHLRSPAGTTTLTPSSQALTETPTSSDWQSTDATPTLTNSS

Vascular endothelial growth factor receptor 2 (Homo sapiens), sequence (P35968 whole entry): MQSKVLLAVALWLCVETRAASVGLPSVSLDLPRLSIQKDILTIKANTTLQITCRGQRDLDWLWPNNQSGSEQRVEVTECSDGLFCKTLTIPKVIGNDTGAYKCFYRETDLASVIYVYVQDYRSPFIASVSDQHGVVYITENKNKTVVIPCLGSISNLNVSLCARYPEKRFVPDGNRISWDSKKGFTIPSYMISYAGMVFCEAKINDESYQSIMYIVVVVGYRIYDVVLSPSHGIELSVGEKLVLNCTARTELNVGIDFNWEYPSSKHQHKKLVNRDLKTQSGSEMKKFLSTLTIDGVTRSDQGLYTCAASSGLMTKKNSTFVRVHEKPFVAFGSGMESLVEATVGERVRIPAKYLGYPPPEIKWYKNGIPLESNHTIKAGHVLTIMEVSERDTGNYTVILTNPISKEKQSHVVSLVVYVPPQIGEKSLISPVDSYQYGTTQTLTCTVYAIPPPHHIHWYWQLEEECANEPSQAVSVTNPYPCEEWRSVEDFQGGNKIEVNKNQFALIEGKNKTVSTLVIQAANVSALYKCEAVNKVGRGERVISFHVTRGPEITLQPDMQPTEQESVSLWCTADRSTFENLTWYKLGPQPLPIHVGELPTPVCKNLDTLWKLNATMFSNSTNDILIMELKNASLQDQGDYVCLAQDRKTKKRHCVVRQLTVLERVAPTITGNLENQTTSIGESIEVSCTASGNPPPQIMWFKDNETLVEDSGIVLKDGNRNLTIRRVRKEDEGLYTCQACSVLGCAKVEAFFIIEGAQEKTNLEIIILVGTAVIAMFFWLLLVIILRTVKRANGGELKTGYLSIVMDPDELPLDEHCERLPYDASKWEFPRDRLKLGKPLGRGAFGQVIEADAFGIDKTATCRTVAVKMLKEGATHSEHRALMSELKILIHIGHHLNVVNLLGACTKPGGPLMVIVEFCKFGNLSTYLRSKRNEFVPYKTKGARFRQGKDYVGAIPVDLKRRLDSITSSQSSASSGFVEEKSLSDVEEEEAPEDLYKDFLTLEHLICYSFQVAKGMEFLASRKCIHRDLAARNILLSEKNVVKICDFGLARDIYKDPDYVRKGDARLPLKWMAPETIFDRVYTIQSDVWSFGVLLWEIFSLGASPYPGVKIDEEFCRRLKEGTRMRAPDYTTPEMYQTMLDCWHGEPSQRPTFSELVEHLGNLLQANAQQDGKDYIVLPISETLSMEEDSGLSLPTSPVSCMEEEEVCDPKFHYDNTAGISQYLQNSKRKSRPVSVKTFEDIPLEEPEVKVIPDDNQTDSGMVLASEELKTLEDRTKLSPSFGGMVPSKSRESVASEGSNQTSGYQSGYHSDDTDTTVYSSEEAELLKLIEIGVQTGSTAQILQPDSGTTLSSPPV
Calcium/calmodulin-dependent protein kinase kinase 2 (Homo sapiens), sequence (Q96RR4 2-588 limits assumed): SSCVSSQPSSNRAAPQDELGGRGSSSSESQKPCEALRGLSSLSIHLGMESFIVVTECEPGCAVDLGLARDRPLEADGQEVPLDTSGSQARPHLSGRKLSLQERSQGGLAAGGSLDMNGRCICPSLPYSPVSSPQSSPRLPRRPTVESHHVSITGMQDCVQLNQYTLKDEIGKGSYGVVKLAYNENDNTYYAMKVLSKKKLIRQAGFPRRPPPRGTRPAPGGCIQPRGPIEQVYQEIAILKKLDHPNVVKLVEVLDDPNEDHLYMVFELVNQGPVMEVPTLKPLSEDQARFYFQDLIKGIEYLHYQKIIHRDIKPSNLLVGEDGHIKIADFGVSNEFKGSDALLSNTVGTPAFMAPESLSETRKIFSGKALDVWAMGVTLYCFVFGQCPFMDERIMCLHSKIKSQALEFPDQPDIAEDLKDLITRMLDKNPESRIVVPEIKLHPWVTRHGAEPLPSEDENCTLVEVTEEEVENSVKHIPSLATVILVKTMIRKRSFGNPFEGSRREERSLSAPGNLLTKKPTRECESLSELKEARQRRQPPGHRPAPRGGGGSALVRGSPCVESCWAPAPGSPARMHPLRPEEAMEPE

With `Cc1c(-c2cc(Nc3cc4n(n3)CCN(C)C4)c(=O)[nH]n2)ccc(F)c1NC(=O)c1cc2ccccc2s1`, the inhibition – broadly, the relative decrease from the control value, in per cent – is -2.4% in data set [1]; -0.4% in data set [2]; -7% in data set [3]; 8.2% in data set [4]; 1.9% in [5]; -3.9% in data set [6]. Also, the inhibition is 1.8% in data set [7], -5.8% in [8], 1% in [9] and 7.5% in data set [10]. Further, in the data set on Mus musculus, the clearance (usually a measure of how efficiently the substance is removed, as volume per time) worked out at 43 mL/min/kg.
